{
  "source": "paper PMC3361698",
  "about": "(Chemistry & biology, 2012)",
  "key": {"[1]": {"target": "T1, SaCoaBC (bifunctional CoaBC protein, phosphopantothenoylcysteine synthetase) (Staphylococcus aureus, UniProt Q2G268)", "T1 sequence (Q2G268 1-399)": "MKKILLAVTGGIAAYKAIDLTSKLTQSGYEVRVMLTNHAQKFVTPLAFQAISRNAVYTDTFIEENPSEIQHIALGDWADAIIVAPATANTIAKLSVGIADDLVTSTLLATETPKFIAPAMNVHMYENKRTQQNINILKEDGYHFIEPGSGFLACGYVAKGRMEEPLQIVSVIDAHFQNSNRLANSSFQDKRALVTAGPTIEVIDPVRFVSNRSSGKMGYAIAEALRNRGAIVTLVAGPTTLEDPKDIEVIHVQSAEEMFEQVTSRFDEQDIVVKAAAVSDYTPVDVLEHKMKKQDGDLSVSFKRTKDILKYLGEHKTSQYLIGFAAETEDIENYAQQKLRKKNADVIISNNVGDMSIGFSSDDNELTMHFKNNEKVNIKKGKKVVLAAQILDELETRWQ", "test": "progress curve inhibition analysis", "type": "biochemical"}, "[2]": {"target": "T2, EcPPCS (phosphopantothenoylcysteine synthetase) (Escherichia coli, UniProt P0ABQ0)", "T2 sequence (P0ABQ0 181-406)": "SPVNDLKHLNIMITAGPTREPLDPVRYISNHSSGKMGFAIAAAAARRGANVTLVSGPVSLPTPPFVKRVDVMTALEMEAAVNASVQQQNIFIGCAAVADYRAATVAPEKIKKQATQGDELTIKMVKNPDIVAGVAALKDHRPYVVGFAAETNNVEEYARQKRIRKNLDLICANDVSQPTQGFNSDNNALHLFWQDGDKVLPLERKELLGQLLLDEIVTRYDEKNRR", "test": "progress curves with Morrison fit, inhibitor formed in situ from P-CJ and CTP", "type": "biochemical"}, "[3]": {"target": "T2, EcPPCS (phosphopantothenoylcysteine synthetase)", "test": "CD melting temperature shift", "type": "binding"}, "[4]": {"target": "T3, SaPanKII (pantothenate kinase, type II) (Staphylococcus aureus, UniProt Q8NVG0)", "T3 sequence (Q8NVG0 whole entry)": "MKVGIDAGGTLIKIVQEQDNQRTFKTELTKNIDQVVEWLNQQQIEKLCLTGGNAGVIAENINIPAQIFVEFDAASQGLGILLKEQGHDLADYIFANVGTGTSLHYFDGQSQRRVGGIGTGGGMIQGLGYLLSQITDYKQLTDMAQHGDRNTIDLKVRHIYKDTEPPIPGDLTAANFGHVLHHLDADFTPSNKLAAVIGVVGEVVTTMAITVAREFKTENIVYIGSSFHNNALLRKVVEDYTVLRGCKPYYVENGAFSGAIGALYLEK", "type": "biochemical"}, "[5]": {"target": "T3, SaPanKII (pantothenate kinase, type II)", "test": "coupled spectrophotometric kinase assay with purified enzyme", "type": "biochemical"}, "[6]": {"target": "T2, EcPPCS (phosphopantothenoylcysteine synthetase)", "test": "CD melting temperature shift", "type": "binding", "remark": "listed apart in the source"}, "[7]": {"target": "T2, EcPPCS (phosphopantothenoylcysteine synthetase)", "test": "pyrophosphate release, HPLC/LCMS of cytidylylation", "type": "biochemical"}},
  "data": [
    {"smiles": "CC(C)(COP(=O)(O)O)[C@@H](O)C(=O)N/C=C/C(=O)OP(=O)(O)OC[C@H]1O[C@@H](n2ccc(N)nc2=O)[C@H](O)[C@@H]1O", "note": "[compound 16, P-CJ-CMP]", "values": [
      {"measurement": "Ki", "setting": "[1]", "result": 0.013, "unit": "µM"},
      {"measurement": "Ki", "setting": "[2]", "result": 0.164, "unit": "µM"}
    ]},
    {"smiles": "Nc1ccn([C@@H]2O[C@H](COP(=O)(O)OP(=O)(O)OP(=O)(O)O)[C@@H](O)[C@H]2O)c(=O)n1", "note": "[CTP]", "values": [
      {"measurement": "CD melting temperature shift (47.7 to 49.7 °C)", "setting": "[3]", "result": "49.7 °C (Tm)"}
    ]},
    {"smiles": "CC(C)(CO)[C@@H](O)C(=O)N/C=C/C(=O)O", "note": "[compound 1, CJ-15,801]", "values": [
      {"measurement": "HPLC of phosphorylation and coupled spectrophotometric kinase assay with purifie", "setting": "[4]", "result": "13.8±4.2 mM^−1.s^−1 (kcat/Km)"}
    ]},
    {"smiles": "CC(C)(CO)[C@@H](O)C(=O)NCCC(=O)O", "note": "[compound 2, pantothenic acid]", "values": [
      {"measurement": "coupled spectrophotometric kinase assay with purified enzyme", "setting": "[5]", "result": "30.2±8.7 mM^−1.s^−1 (kcat/Km)"}
    ]},
    {"smiles": "CC(C)(COP(=O)(O)O)[C@@H](O)C(=O)NCCC(=O)OP(=O)(O)OC[C@H]1O[C@@H](n2ccc(N)nc2=O)[C@H](O)[C@@H]1O", "note": "[compound 14, P-Pan-CMP]", "values": [
      {"measurement": "CD melting temperature shift (47.7 to 54.3 °C), formed in situ from P-Pan and CT", "setting": "[6]", "result": "54.3 °C (Tm)"}
    ]},
    {"smiles": "CC(C)(COP(=O)(O)O)[C@@H](O)C(=O)N/C=C/C(=O)O", "note": "[compound 13, P-CJ]", "values": [
      {"measurement": "IC50", "setting": "[7]", "result": "2.66 ± 0.16", "unit": "µM"}
    ]}
  ]
}
